Reference: US10988737B2, “Clinical gene signature-based human cell culture model and uses thereof” (priority 2015, dated 2021)
“Also recorded” adds a separate entry of the source.

Legend:
[1] = test system: HCC risk signature in HCV Jc1-infected Huh7.5.1^dif cells; test: HCC risk signature in HCV Jc1-infected Huh7.5.1dif cells after antiviral or EGFR/MAPK pathway inhibitor treatment; type: cell-based, human; conditions: three days treatment from day 7 post-infection
Protocol: HCV Infection of Huh7.5.1^dif cells. […] Huh7.5.1^dif cells were infected with HCV Jc1 or HCV Jc1E2^FLAG. […] HCV infection was assessed by qRT-PCR of intracellular HCV RNA (Xiao et al., PLoS Pathog., 2014, 10: e1004128) as well as immunostaining using HCV E2-specific AP33 antibody as previously described (Krieger et al., Hepatology, 2010, 51: 1144-1157).
Transcriptional Analyses. Liver cells were lysed in TRI-reagent (Molecular Research Center; Cincinnati, Ohio, USA), and RNA was purified using Direct-zol RNA MiniPrep (Zymo Research, Irvine, Calif., USA) according to manufacturer's instructions. RNA quantity and RNA quality were assessed using NanoDrop (Thermo Scientific, Waltham, Mass., USA) and Bioanalyzer 2100 (IIlumina, San Diego, Calif., USA) with a quality cut-off of RNA Integrity Number >8. […] Gene expression profiling was performed using 250-500 ng total RNA by using either NCOUNTER Digital Analyzer system (NanoString) or the HumanHT-12 beadarray (Illumina, San Diego, Calif., USA). HCC high risk gene expression was analyzed by qRT-PCR using specific TaqMan Gene Expression Assays (Life Technologies, Carlsbad, Calif., USA) or the ANXA3 and GPX2 primer sets previously described (Pan et al., Stem Cells, 2015, 33: 354-366 and Brault et al., Gut, 2014, 65: 44-54, respectively). The expression of GAPDH mRNA was analyzed as a reference gene using a specific TaqMan Gene Expression Assay (Life Technologies, Carlsbad, Calif., USA) or the RT2 qPCR Primer Assay (Qiagen, Hilden, Germany). Relative gene expression level was calculated by the ΔΔCt method as previously described (Schmittgen et al., Nat. Protoc., 2008, 3: 1101-1108).
Bioinformatics. Induction or suppression of HCC risk signature in HumanHT-12 beadarray (Illumina, San Diego, Calif., USA) data was determined as previously reported by using Nearest Template Prediction algorithm and Gene Set Enrichment Analysis (GSEA), implemented in GenePattern genomic analysis toolkits (Subramanian et al., PNAS USA, 2005, 102: 15545-15550; Hoshida, PLoS One, 2010, 5: e15543; Reich et al., Nat. Genet., 2006, 38: 500-501). Molecular pathway deregulations were determined in Molecular Signature Database (MSigDB, ver.4.0) (Liberzon et al., Bioinformatics, 2011, 27: 1739-1740) using GSEA (Subramanian et al., PNAS USA, 2005, 102: 15545-15550).

HCV Jc1 = test: HCV viral load in HCV Jc1-infected Huh7.5.1dif cells (qRT-PCR of intracellular HCV RNA); type: cell-based; conditions: for effect on HCV viral load: HCV-infected Huh7.5.1dif cells, at the concentrations that suppress the signature
Protocol: HCV Infection of Huh7.5.1^dif cells. Cell culture-derived HCVcc Jc1 (genotype 2a/2a) (Pietschmann et al., PNAS USA, 2006, 103: 7408-7413) were generated in Huh7.5.1 cells as previously described (Wakita et al., Nat. Med., 2005, 11: 791-796). HCV Jc1E2^FLAG was purified using anti-FLAG M2 affinity gel (Sigma-Aldrich, St.Louis, Mo., USA) as described (Merz et al., J. Biol. Chem., 2011, 286: 3018-3032). HCVcc infectivity was determined by calculating the 50% tissue culture infectious doses (TCID50) as previously described (Lindenbach et al., Science, 2005, 309: 623-626). Huh7.5.1^dif cells were infected with HCV Jc1 or HCV Jc1E2^FLAG. Cell culture supernatants from mock-electroporated cells or 100 μg/mL of FLAG peptide were used for control experiments. HCV infection was assessed by qRT-PCR of intracellular HCV RNA (Xiao et al., PLoS Pathog., 2014, 10: e1004128) as well as immunostaining using HCV E2-specific AP33 antibody as previously described (Krieger et al., Hepatology, 2010, 51: 1144-1157).

ERK1/2 = test: Proteome Profiler Human Phospho-kinase Array in HCV-infected liver cells; type: cell-based; conditions: low inhibitor concentrations
Protocol: Proteomic Analyses. For proteomic analyses, Huh7.5.1^dif cells that had undergone DMSO-mediated differentiation, were infected with HCV Jc1E2^FLAG (TCID50=10^7/mL) as described above. On day 7, receptor tyrosine kinase (RTK) phosphorylation was assessed in cell lysates using the Human Phospho-RTK Array Kit as previously described (Lupberger et al., Nat. Med., 2011, 17: 589-595; and Zona et al., Cell Host Microbe, 2013, 13: 302-313). The effect of MAPK inhibitors on signaling was confirmed using the Proteome Profiler Human Phospho-kinase Array according to manufacturer's instructions (R&D Systems). Amounts of phospho-proteins were assessed using a horseradish peroxidase-conjugated pan-phospho-tyrosine-specific antibody (R&D Systems, Minneapolis, Minn., USA) followed by chemiluminescence detection (GE Healthcare, Cleveland, Ohio, USA) according to manufacturer's instructions. The relative dot-blot density of the phosphorylated proteins in HCV Jc1E2^FLAG infected samples compared to non-infected controls was quantified using Image J software (NIH) by elliptical selection of individual dots and measuring standard deviation and integrated density.

[2] = test system: PLS/HCC high risk genes in HCV-infected or ethanol exposed Huh7.5.1^dif cells or HBV-infected HepG2-NTCP cells; test: Epigenetic inhibitors: 32-gene PLS/HCC risk signature in infected or ethanol-treated liver cells; type: cell-based, human; conditions: iBET 0.05 μM, WDR5-0103 100 μM
Protocol: HCV infection was assessed at day 10 by qRT-PCR of intracellular RNA as described (Xiao et al., PLoS pathogens. 2014, 10(5): e1004128).
(§1) HBV infection was assessed at day 10 post-infection by qRT-PCR quantification of HBV pregenomic RNA (pgRNA) as described in (Verrier et al., Hepatology, 2015, 63: 35-48).
Fresh medium containing ethanol and antibodies was replenished daily (Ye et al., Drug Alcohol Depend., 2010, 112: 107-116).
(§2) Transcriptional analyses. Ten days after HCV Jc1 and HBV infection or ethanol exposure, cultures were lysed using TRI-reagent (MRC) and RNA purified using the Directzol mini kit (Zymo Research). Gene expression profiling was performed using 250-500 ng total RNA by using either NCOUNTER Digital Analyzer system (NanoString) or high throughput qRT-PCR Biomark HD (Baker, Nature Meth., 2012, 9: 541-544) […]. Induction or suppression of HCC risk signature was determined by Gene Set Enrichment Analysis (GSEA), implemented in GenePattern genomic analysis toolkits.

[3] = test system: PLS/HCC high risk genes in HBV-infected HepG2-NTCP cells; test: Epigenetic inhibitors: 32-gene PLS/HCC risk signature in HBV-infected HepG2-NTCP cells; type: cell-based; conditions: only in HBV infected cells; C646 10 μM
Protocol: as §1, §2

[4] = test system: HCC high-risk genes in human fibrotic liver tissue; test: Organotypic ex vivo culture of surgically resected human fibrotic liver tissue slices, PLS/HCC risk signature by GSEA; type: cell-based; conditions: erlotinib 5 μM, pioglitazone 10 μM
Protocol: Liver Slices. Fresh liver tissue sections (300 μm-thick) were prepared from surgically resected fibrotic livers from HCC patients using Krumdieck Tissue Slicer MD6000 (Alabama Research and Development, Munford, Ala., USA).
Transcriptional Analyses. Liver cells were lysed in TRI-reagent (Molecular Research Center; Cincinnati, Ohio, USA), and RNA was purified using Direct-zol RNA MiniPrep (Zymo Research, Irvine, Calif., USA) according to manufacturer's instructions. RNA quantity and RNA quality were assessed using NanoDrop (Thermo Scientific, Waltham, Mass., USA) and Bioanalyzer 2100 ([…]) with a quality cut-off of RNA Integrity Number >8. […] HCC high risk gene expression was analyzed by qRT-PCR using specific TaqMan Gene Expression Assays (Life Technologies, Carlsbad, Calif., USA) or the ANXA3 and GPX2 primer sets previously described (Pan et al., Stem Cells, 2015, 33: 354-366 and Brault et al., Gut, 2014, 65: 44-54, respectively). The expression of GAPDH mRNA was analyzed as a reference gene using a specific TaqMan Gene Expression Assay (Life Technologies, Carlsbad, Calif., USA) or the RT2 qPCR Primer Assay (Qiagen, Hilden, Germany). Relative gene expression level was calculated by the ΔΔCt method as previously described (Schmittgen et al., Nat. Protoc., 2008, 3: 1101-1108). […]

Molecule	HCC high-risk gene expression [1]	effect on HCV viral load (HCV Jc1)	PLS/HCC high risk gene expression [2]	also measured
Nc1[nH]nc2nnc(-c3c(-c4ccccc4)nn4ccccc34)cc12 [Fr180204]	suppressed	absent effects		ERK1/2 phosphorylation (virus-induced MAPK signaling) (ERK1/2): reduced
COC(=O)c1ccc(N2CCN(C)CC2)c(NC(=O)c2cccc(OC)c2)c1 [WDR5-0103]			suppressed	
iBET			suppressed	
CC1=NN(c2ccc(C(=O)O)cc2)C(=O)/C1=C\c1ccc(-c2cc(C)c(C)cc2[N+](=O)[O-])o1 [C646]				PLS/HCC high risk genes [3]: suppressed
C#Cc1cccc(Nc2ncnc3cc(OCCOC)c(OCCOC)cc23)c1 [Erlotinib]	suppressed	did not modify		PLS / HCC high-risk genes in ex vivo liver tissue [4]: effectively suppress; also recorded: reverted
Interferon-alpha 2a	partial suppression			HCC low-risk gene expression [1]: restoration; decrease of viral load (HCV Jc1; HCV Jc1-infected Huh7.5.1dif cells, three days treatment from day 7, 10 IU/mL interferon-alpha 2a or 1 nM daclatasvir + 1 μM sofosbuvir): about 100 fold
